In brackets after ≈: the same amount, converted by molar mass. Numbered stars: 1 amine (or outer) side, 2 acyl side, 3 side chain; on linkers, the order of the positions; unused ones are H or OH. Bridge positions count the residues as written; N and C are the ends. Square brackets hold non-standard residues; d marks the D form. Peptide text beside a SMILES is read from it. * marks the point of attachment. Orn(4R-OH,5R-OH) = O=C([C@H](C[C@@H](O)[C@@H](O)N[*:3])N[*:1])[*:2]; Tetradecanoyl(10R,12S-Me2) = CC[C@H](C)C[C@H](C)CCCCCCCCC(=O)*; hTyr(3S-OH,4S-OH) = N[C@H](C(=O)O)[C@H](O)[C@@H](O)c1ccc(O)cc1; Pro(3S-OH,4S-Me) = C[C@H]1CN[C@H](C(=O)O)[C@H]1O; X1 = CCCCCOc1ccc(-c2cc(-c3ccc(C(=O)*)cc3)no2)cc1; Gln(3R-OH) = NC(=O)C[C@@H](O)[C@H](N)C(=O)O; Hyp = O=C(O)[C@@H]1C[C@@H](O)CN1
What was measured:
Beta-1,3-glucan synthase = target: T1, Beta-1,3-glucan synthase (Candida albicans, UniProt O13383); test: Inhibition of wild type Candida albicans 1,3-beta-D-glucan synthase using UDP[6,3H]-glucose as substrate after 60 mins by liquid scintillation counting analysis
T1 sequence (O13383 whole entry): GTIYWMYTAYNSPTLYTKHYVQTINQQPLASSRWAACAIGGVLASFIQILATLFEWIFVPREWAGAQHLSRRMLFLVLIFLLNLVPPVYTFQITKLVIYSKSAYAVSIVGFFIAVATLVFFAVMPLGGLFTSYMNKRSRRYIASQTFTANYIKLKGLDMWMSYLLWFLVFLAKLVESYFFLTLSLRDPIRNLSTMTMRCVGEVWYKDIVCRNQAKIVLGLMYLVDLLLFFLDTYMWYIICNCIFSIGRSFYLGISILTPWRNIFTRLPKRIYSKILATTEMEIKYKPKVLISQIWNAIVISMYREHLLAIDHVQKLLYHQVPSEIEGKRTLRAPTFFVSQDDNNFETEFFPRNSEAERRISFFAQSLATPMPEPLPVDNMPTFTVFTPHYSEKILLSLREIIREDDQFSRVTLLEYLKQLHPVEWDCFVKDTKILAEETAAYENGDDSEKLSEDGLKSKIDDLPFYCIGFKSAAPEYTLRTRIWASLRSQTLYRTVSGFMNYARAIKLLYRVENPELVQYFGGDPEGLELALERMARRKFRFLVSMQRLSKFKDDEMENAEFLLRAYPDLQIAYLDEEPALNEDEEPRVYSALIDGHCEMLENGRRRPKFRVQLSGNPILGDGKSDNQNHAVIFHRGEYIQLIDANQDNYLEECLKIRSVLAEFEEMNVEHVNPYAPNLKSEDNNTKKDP

Staphylococcus aureus = test: Antibacterial activity against methicillin-sensitive Staphylococcus aureus MB2865 assessed as growth inhibition after 24 hrs by NCCLS broth microdilution method; type: functional; conditions: MB2865, 24 h, read-out: MIC100
Candida albicans [1] = test: Antifungal activity against wild type Candida albicans MY1055 assessed as growth inhibition after 24 hrs by NCCLS broth microdilution method; type: functional; conditions: MY1055, 24 h; for MIC: read-out: MIC100
Candida parapsilosis = test: Antifungal activity against wild type Candida parapsilosis ATCC 22019 assessed as growth inhibition after 24 hrs by NCCLS broth microdilution method; type: functional; conditions: Lodderomyces parapsilosis, ATCC 22019, 24 h; for MIC: read-out: MIC100
Candida albicans [2] = test: Antifungal activity against wild type Candida albicans MY1055 assessed as growth inhibition after 24 hrs by NCCLS broth microdilution method in presence of human serum; type: functional; conditions: MY1055, 24 h; for MIC: read-out: MIC100
Clavispora lusitaniae = test: Antifungal activity against wild type Candida lusitaniae MY1396 assessed as growth inhibition after 24 hrs by NCCLS broth microdilution method; type: functional; conditions: MY1396, 24 h; for MIC: read-out: MIC100
Candida albicans [3] = test: Antifungal activity against wild type Candida albicans CAI4 assessed as growth inhibition after 24 hrs by NCCLS broth microdilution method; type: functional; conditions: CAI4, 24 h; for MIC: read-out: MIC100
Aspergillus fumigatus = test: Antifungal activity against Aspergillus fumigatus MF5668 caspofungin spontaneous resistance mutant assessed as growth inhibition after 24 hrs by NCCLS broth microdilution method; type: functional; conditions: MF5668, 24 h; for minimal effective concentration: read-out: MEC
Nakaseomyces glabratus = test: Antifungal activity against wild type Candida glabrata MY1381 assessed as growth inhibition after 24 hrs by NCCLS broth microdilution method; type: functional; conditions: MY1381, 24 h; for MIC: read-out: MIC100
Candida albicans [4] = test: Antifungal activity against Candida albicans NR3 assessed as growth inhibition after 24 hrs by NCCLS broth microdilution method; type: functional; conditions: NR3, 24 h; for MIC: read-out: MIC100
[5] = test system: Meyerozyma guilliermondii; test: Antifungal activity against wild type Candida guilliermondii CLY308 assessed as growth inhibition after 24 hrs by NCCLS broth microdilution method; type: functional; conditions: CLY308, 24 h; for MIC: read-out: MIC100
Cryptococcus neoformans = test: Antifungal activity against capsular wild type Cryptococcus neoformans MY2061 assessed as growth inhibition after 24 hrs by NCCLS broth microdilution method; type: functional; conditions: MY2061, 24 h, read-out: MIC100
Candida albicans [6] = test: Antifungal activity against Candida albicans CAI4-R1 assessed as growth inhibition after 24 hrs by NCCLS broth microdilution method; type: functional; conditions: CAI4-R1, 24 h; for MIC: read-out: MIC100
Pichia kudriavzevii = test: Antifungal activity against wild type Candida krusei CLY549 assessed as growth inhibition after 24 hrs by NCCLS broth microdilution method; type: functional; conditions: CLY549, 24 h; for MIC: read-out: MIC100
Escherichia coli = test: Antibacterial activity against Escherichia coli ATCC 25922 assessed as growth inhibition after 24 hrs by NCCLS broth microdilution method; type: functional; conditions: ATCC 25922, 24 h, read-out: MIC100
Candida albicans [7] = test: Antifungal activity against Candida albicans MY1055 infected in DBA/2 mouse assessed as reduction of log CFU in kidney administered 30 mins as ip tid post infection measured after 24 hrs; type: functional

Row | Compound | IC50 (Beta-1,3-glucan synthase) [nM] | MIC (Staphylococcus aureus) [µg/mL] | MIC80 (Candida albicans [1]) [µg/mL] | MIC (Candida albicans [1]) [µg/mL] | MIC80 (Candida parapsilosis) [µg/mL] | MIC (Candida parapsilosis) [µg/mL] | MIC80 (Candida albicans [2]) [µg/mL] | MIC (Candida albicans [2]) [µg/mL] | MIC80 (Clavispora lusitaniae) [µg/mL] | MIC (Clavispora lusitaniae) [µg/mL] | MIC80 (Candida albicans [3]) [µg/mL] | MIC (Candida albicans [3]) [µg/mL] | MIC80 (Aspergillus fumigatus) [µg/mL] | minimal effective concentration (Aspergillus fumigatus) [µg/mL] | MIC80 (Nakaseomyces glabratus) [µg/mL] | MIC (Nakaseomyces glabratus) [µg/mL] | MIC80 (Candida albicans [4]) [µg/mL] | MIC (Candida albicans [4]) [µg/mL] | MIC80 [5] [µg/mL] | MIC [5] [µg/mL] | other results
1 | CCCCCOc1ccc(-c2cc(-c3ccc(C(=O)N[C@H]4C[C@@H](O)[C@@H](O)NC(=O)[C@@H]5[C@@H](O)[C@@H](C)CN5C(=O)[C@H]([C@@H](C)O)NC(=O)[C@H]([C@H](O)[C@@H](O)c5ccc(O)cc5)NC(=O)[C@@H]5C[C@@H](O)CN5C(=O)[C@H]([C@@H](C)O)NC4=O)cc3)no2)cc1 (X1-[Orn(4R-OH,5R-OH)]T[Hyp][hTyr(3S-OH,4S-OH)]T[Pro(3S-OH,4S-Me)]; lactam 1-C) | 4.4 | > 32 | 0.06 (≈ 0.053 µM) | 0.5 (≈ 0.442 µM) | 4 (≈ 3.54 µM) | 32 (≈ 28.3 µM) | 0.5 | 2 | 0.125 (≈ 0.111 µM) | 1 (≈ 0.884 µM) | < 0.03 | 0.5 (≈ 0.442 µM) | < 0.03 | > 32 | 0.25 (≈ 0.221 µM) | 1 (≈ 0.884 µM) | 4 (≈ 3.54 µM) | 16 (≈ 14.1 µM) | 2 (≈ 1.77 µM) | 4 (≈ 3.54 µM) | MIC (Cryptococcus neoformans): > 32 µg/mL; MIC80 (Candida albicans [6]): 1 µg/mL (≈ 0.884 µM); MIC (Candida albicans [6]): 8 µg/mL (≈ 7.07 µM); MIC80 (Pichia kudriavzevii): 0.5 µg/mL (≈ 0.442 µM); MIC (Pichia kudriavzevii): 1 µg/mL (≈ 0.884 µM); MIC (Escherichia coli): > 32 µg/mL
2 | CC[C@H](C)C[C@H](C)CCCCCCCCC(=O)N[C@H]1C[C@@H](O)[C@@H](O)NC(=O)[C@@H]2[C@@H](O)[C@@H](C)CN2C(=O)[C@H]([C@H](O)CC(N)=O)NC(=O)[C@H]([C@H](O)[C@@H](O)c2ccc(O)cc2)NC(=O)[C@@H]2C[C@@H](O)CN2C(=O)[C@H]([C@@H](C)O)NC1=O ({Tetradecanoyl(10R,12S-Me2)}-[Orn(4R-OH,5R-OH)]T[Hyp][hTyr(3S-OH,4S-OH)][Gln(3R-OH)][Pro(3S-OH,4S-Me)]; lactam 1-C) | 17.6 | > 32 | 0.125 (≈ 0.116 µM) | 0.5 (≈ 0.463 µM) | 8 (≈ 7.41 µM) | > 32 | 16 | 32 | 1 (≈ 0.927 µM) | 4 (≈ 3.71 µM) | < 0.03 | 0.5 (≈ 0.463 µM) | 4 (≈ 3.71 µM) | > 32 | 2 (≈ 1.85 µM) | 4 (≈ 3.71 µM) | 32 (≈ 29.7 µM) | > 32 | 4 (≈ 3.71 µM) | 32 (≈ 29.7 µM) | ED90 (Candida albicans [7]): 1.15 mg/kg/day; ED99 (Candida albicans [7]): 6.77 mg/kg/day; MIC (Cryptococcus neoformans): > 32 µg/mL; MIC80 (Candida albicans [6]): 8 µg/mL (≈ 7.41 µM); MIC (Candida albicans [6]): 16 µg/mL (≈ 14.8 µM); MIC80 (Pichia kudriavzevii): 4 µg/mL (≈ 3.71 µM); MIC (Pichia kudriavzevii): 8 µg/mL (≈ 7.41 µM); MIC (Escherichia coli): > 32 µg/mL
